Converted amounts (≈) assume the structure as drawn.
Tests used:
Type in all cases: functional
[1] = tested on: Bemisia tabaci; test: Cross resistant, ratio of LC50 for B-biotype thiamethoxam-resistant Bemisia tabaci (sweet potato whitefly) to LC50 for B-biotype thiamethoxam-sensitive Bemisia tabaci (sweet potato whitefly)
[2] = tested on: Bemisia tabaci; test: Insecticidal activity against B-biotype thiamethoxam-resistant Bemisia tabaci (sweet potato whitefly) in cabbage leaf assessed as mortality after 48 hr by leaf disk assay; conditions: foliar
[3] = tested on: Bemisia tabaci; test: Insecticidal activity against B-biotype thiamethoxam-sensitive Bemisia tabaci (sweet potato whitefly) in cabbage leaf assessed as mortality after 48 hr by leaf disk assay; conditions: foliar
[4] = tested on: Bemisia tabaci; test: Resistant ratio, ratio of LC50 for T30 generation of B-biotype Bemisia tabaci (sweet potato whitefly) to LC50 for B-biotype Bemisia tabaci (sweet potato whitefly)
[5] = tested on: Bemisia tabaci; test: Insecticidal activity against B-biotype thiamethoxam-resistant Bemisia tabaci (sweet potato whitefly) in cabbage leaf assessed as mortality after 48 hr by leaf disk assay in presence of piperonyl butoxide; conditions: foliar
[6] = tested on: Bemisia tabaci; test: Insecticidal activity against T30 generation of B-biotype Bemisia tabaci (sweet potato whitefly) in cabbage leaf assessed as mortality after 48 hr by leaf disk assay; conditions: foliar
[7] = tested on: Bemisia tabaci; test: Insecticidal activity against T17 generation of B-biotype Bemisia tabaci (sweet potato whitefly) in cabbage leaf assessed as mortality after 48 hr by leaf disk assay; conditions: foliar
[8] = tested on: Bemisia tabaci; test: Synergism ratio, Ratio of LC50 for B-biotype thiamethoxam-sensitive Bemisia tabaci (sweet potato whitefly) to LC50 for B-biotype thiamethoxam-sensitive Bemisia tabaci (sweet potato whitefly) in presence of piperonyl butoxide
[9] = tested on: Bemisia tabaci; test: Insecticidal activity against T33 generation of B-biotype Bemisia tabaci (sweet potato whitefly) in cabbage leaf assessed as mortality after 48 hr by leaf disk assay; conditions: foliar
[10] = tested on: Bemisia tabaci; test: Synergism ratio, Ratio of LC50 for B-biotype thiamethoxam-sensitive Bemisia tabaci (sweet potato whitefly) to LC50 for B-biotype thiamethoxam-sensitive Bemisia tabaci (sweet potato whitefly) in presence of diethylmaleate
[11] = tested on: Bemisia tabaci; test: Insecticidal activity against B-biotype thiamethoxam-sensitive Bemisia tabaci (sweet potato whitefly) in cabbage leaf assessed as mortality after 48 hr by leaf disk assay in presence of piperonyl butoxide; conditions: foliar
[12] = tested on: Bemisia tabaci; test: Resistant ratio, ratio of LC50 for T28 generation of B-biotype Bemisia tabaci (sweet potato whitefly) to LC50 for B-biotype Bemisia tabaci (sweet potato whitefly)
[13] = tested on: Bemisia tabaci; test: Resistant ratio, ratio of LC50 for T17 generation of B-biotype Bemisia tabaci (sweet potato whitefly) to LC50 for B-biotype Bemisia tabaci (sweet potato whitefly)
[14] = tested on: Bemisia tabaci; test: Insecticidal activity against B-biotype thiamethoxam-resistant Bemisia tabaci (sweet potato whitefly) in cabbage leaf assessed as mortality after 48 hr by leaf disk assay in presence of triphenyl phosphate; conditions: foliar
[15] = tested on: Bemisia tabaci; test: Insecticidal activity against T28 generation of B-biotype Bemisia tabaci (sweet potato whitefly) in cabbage leaf assessed as mortality after 48 hr by leaf disk assay; conditions: foliar
[16] = tested on: Bemisia tabaci; test: Synergism ratio, Ratio of LC50 for B-biotype thiamethoxam-resistant Bemisia tabaci (sweet potato whitefly) to LC50 for B-biotype thiamethoxam-resistant Bemisia tabaci (sweet potato whitefly) in presence of diethylmaleate
[17] = tested on: Bemisia tabaci; test: Insecticidal activity against B-biotype thiamethoxam-sensitive Bemisia tabaci (sweet potato whitefly) in cabbage leaf assessed as mortality after 48 hr by leaf disk assay in presence of triphenyl phosphate; conditions: foliar
[18] = tested on: Bemisia tabaci; test: Insecticidal activity against B-biotype Bemisia tabaci (sweet potato whitefly) in cabbage leaf assessed as mortality after 48 hr by leaf disk assay; conditions: foliar
[19] = tested on: Bemisia tabaci; test: Insecticidal activity against B-biotype thiamethoxam-sensitive Bemisia tabaci (sweet potato whitefly) in cabbage leaf assessed as mortality after 48 hr by leaf disk assay in presence of diethylmaleate; conditions: foliar
[20] = tested on: Bemisia tabaci; test: Synergism ratio, Ratio of LC50 for B-biotype thiamethoxam-sensitive Bemisia tabaci (sweet potato whitefly) to LC50 for B-biotype thiamethoxam-sensitive Bemisia tabaci (sweet potato whitefly) in presence of triphenyl phosphate
[21] = tested on: Bemisia tabaci; test: Insecticidal activity against B-biotype thiamethoxam-resistant Bemisia tabaci (sweet potato whitefly) in cabbage leaf assessed as mortality after 48 hr by leaf disk assay in presence of diethylmaleate; conditions: foliar
[22] = tested on: Bemisia tabaci; test: Synergism ratio, Ratio of LC50 for B-biotype thiamethoxam-resistant Bemisia tabaci (sweet potato whitefly) to LC50 for B-biotype thiamethoxam-resistant Bemisia tabaci (sweet potato whitefly) in presence of piperonyl butoxide
[23] = tested on: Bemisia tabaci; test: Synergism ratio, Ratio of LC50 for B-biotype thiamethoxam-resistant Bemisia tabaci (sweet potato whitefly) to LC50 for B-biotype thiamethoxam-resistant Bemisia tabaci (sweet potato whitefly) in presence of triphenyl phosphate
[24] = tested on: Bemisia tabaci; test: Resistant ratio, ratio of LC50 for T33 generation of B-biotype Bemisia tabaci (sweet potato whitefly) to LC50 for B-biotype Bemisia tabaci (sweet potato whitefly)

For `CC[C@H](C)[C@H]1O[C@]2(C=C[C@@H]1C)C[C@@H]1C[C@@H](C/C=C(\C)[C@@H](O[C@H]3C[C@H](OC)[C@@H](O[C@H]4C[C@H](OC)[C@@H](O)[C@H](C)O4)[C@H](C)O3)[C@@H](C)/C=C/C=C3\CO[C@@H]4[C@H](O)C(C)=C[C@@H](C(=O)O1)[C@]34O)O2.CO[C@H]1C[C@H](O[C@H]2[C@H](C)O[C@@H](O[C@@H]3/C(C)=C/C[C@@H]4C[C@@H](C[C@]5(C=C[C@H](C)[C@@H](C(C)C)O5)O4)OC(=O)[C@@H]4C=C(C)[C@@H](O)[C@H]5OC/C(=C\C=C\[C@@H]3C)[C@]54O)C[C@@H]2OC)O[C@@H](C)[C@@H]1O` [ABAMECTIN], the RatioLC50 [1] was 5.33, the LC50 [2] was 0.64 µg/mL and the LC50 [3] was 0.12 µg/mL.

`C/C(=N\C#N)N(C)Cc1ccc(Cl)nc1` [ACETAMIPRID] was tested, and the RatioLC50 [1] was 35.8, the LC50 [2] was 70.9 µg/mL (≈ 318 µM) and the LC50 [3] was 1.98 µg/mL (≈ 8.89 µM).

`CCCCN(CCCC)SN(C)C(=O)Oc1cccc2c1OC(C)(C)C2` [CARBOSULFAN] gave a RatioLC50 [1] of 4.43, an LC50 [2] of 1960 µg/mL (≈ 5140 µM) and an LC50 [3] of 441 µg/mL (≈ 1160 µM).

`CCOP(=S)(OCC)Oc1nc(Cl)c(Cl)cc1Cl` [CHLORPYRIFOS] gave a RatioLC50 [1] of 1.03, an LC50 [2] of 621 µg/mL (≈ 1770 µM) and an LC50 [3] of 601 µg/mL (≈ 1710 µM).

In the case of `CC1(C)[C@H](C(=O)O[C@H](C#N)c2cccc(Oc3ccccc3)c2)[C@@H]1C=C(Br)Br` [DELTAMETHRIN], the RatioLC50 [1] is reported as 1.16, the LC50 [2] is reported as 810 µg/mL (≈ 1600 µM) and the LC50 [3] is reported as 701 µg/mL (≈ 1390 µM).

With `N#Cc1nn(-c2c(Cl)cc(C(F)(F)F)cc2Cl)c(N)c1[S+]([O-])C(F)(F)F` (stereo not drawn) [FIPRONIL] the RatioLC50 [1] was 1.08, the LC50 [2] was 4.45 µg/mL (≈ 10.2 µM) and the LC50 [3] was 4.11 µg/mL (≈ 9.4 µM).

`O=[N+]([O-])/N=C1\NCCN1Cc1ccc(Cl)nc1` [IMIDACLOPRID] was tested, and the RatioLC50 [1] was 47.3, the LC50 [2] was 412 µg/mL (≈ 1610 µM) and the LC50 [3] was 8.72 µg/mL (≈ 34.1 µM).

Molecule `CCN(Cc1ccc(Cl)nc1)/C(=C/[N+](=O)[O-])NC` [NITENPYRAM] has a RatioLC50 [1] of 9.99, an LC50 [2] of 22.2 µg/mL (≈ 82 µM) and an LC50 [3] of 2.22 µg/mL (≈ 8.2 µM).

`CN1COCN(Cc2cnc(Cl)s2)/C1=N\[N+](=O)[O-]` [THIAMETHOXAM] gave a RatioLC50 [4] of 25.6, an LC50 [5] of 143 µg/mL and an LC50 [6] of 451 µg/mL (≈ 1550 µM). It also gave an LC50 [7] of 169 µg/mL (≈ 579 µM), a RatioLC50 [8] of 1.17 and an LC50 [9] of 1160 µg/mL (≈ 3990 µM). It also gave a RatioLC50 [10] of 0.95, an LC50 [11] of 15 µg/mL and a RatioLC50 [12] of 19. For the same molecule, the RatioLC50 [13] was 9.62, the RatioLC50 [1] was 25.6 and the LC50 [14] was 189 µg/mL. It also gave an LC50 [2] of 450 µg/mL (≈ 1540 µM), an LC50 [15] of 334 µg/mL (≈ 1140 µM) and a RatioLC50 [16] of 0.99. For the same molecule, the LC50 [17] was 17.6 µg/mL, the LC50 [18] was 17.6 µg/mL (≈ 60.3 µM) and the LC50 [19] was 18.5 µg/mL. For the same molecule, the RatioLC50 [20] was 1, the LC50 [3] was 17.6 µg/mL (≈ 60.3 µM) and the LC50 [21] was 452 µg/mL. The RatioLC50 [22] was 3.14, the RatioLC50 [23] was 2.37 and the RatioLC50 [24] was 66.3.
